In patent US12661503B2, “Microcurrent-based skin treatment and pretreatment techniques” (NSE Products, Inc., priority 2022, dated 2026):
“Also recorded” adds a separate entry of the source. Read-outs that look alike come from different tables or passages of the source. One block for each molecule: values may come before it.

Legend:
[1] = Franz cell epidermal and dermal retention of tracking marker; format: in vitro ADME, human or mammalian
Procedure: (§1) FIG. 7A is a schematic diagram of a Franz cell (or cell system) 700 adapted for testing permeability of a skin sample 710.
(§2) The study was conducted in two phases or parts. Round 1a (Round 1: Phase 1a) evaluated the penetration of 1.0% allantoin (an active) in PBS with a galvanic electrical waveform (GEWF), charge-balanced, symmetric electrical waveform (CSW), and a Program Random Pulse Width Modulation electrical waveform ([…]), in a Franz cell model. Details of the testing process includes receptor well collection and processing (Table 2A), and the epidermal and dermal retention protocol to assess penetration of the tracking markers (Table 2B).
(§3) Receptor fluid collection was measured at time t=0 (before and immediately after the topical sample treatment), at the end of waveform cycle 1 (t=12 min), at the end of waveform cycle 3 (t=36 m); and at 1 hour (1 h), 6 h and 24 h intervals post-pretreatment with the electrical waveform and treatment with the selected topical agents.
Receptor fluid collection was performed at time t=0 (before and immediately after topical sample treatment), at the end of waveform cycle one (12 m), at the end of waveform cycle three (36 m), and at 1 h, 6 h and 24 h intervals post pre-treatment with the electrical waveform, and treatment with the topical agent.
(§4) The number of Franz cell replicates (Franz cells) per sample was n=3 for non-electrical pretreated samples, and n=6 for pulsed electrical pretreatment samples. The number of Franz cell replicates may also vary. The current flow (I) is given in microamperes (μA), and the pulse time (PT) in minutes (mi) where zeros indicate no electrical current, and no pulse time. In each case, the next include the sample being drawn off (draw off), and post pulse treatment/dosing with phosphate buffered saline (PBS) containing 1.0% allantoin. Assessment times were at post 0.5, 1.0, 6 and 24 hours (hr), assaying for allantoin.

[2] = Franz cell transdermal penetration (receptor fluid) after electrical waveform pretreatment; format: in vitro ADME, human or mammalian; details: for transdermal penetration of allantoin, six minute vs three minute pretreatment: CSW at 375, 250 and 125 μA (all current levels)
Text: as §1
An electrical voltage can be applied to or across the sample 720 via an electrode 740 in contact with the skin sample 730, and a conducting lead 750 disposed in a sampling port 760. Suitable materials for electrode 740 and lead 750 include platinum, silver, copper, and other conducting metals, in porous mesh, wafer, plate, or wire form. A heater 770 can be provided to maintain temperature of the Franz cell 710, sample 720 and donor compound 730, during operation of the system 700.
FIG. 7B is a schematic diagram of a Franz cell system 700 adapted for application of a microcurrent treatment to the skin sample 710. In this example, a galvanic unit or waveform generator 780 can be provided to apply a microcurrent waveform to the skin sample 720; e.g., via a negative polarity platinum wire 755 connected to a porous mesh or wafer electrode 740 on the skin surface, with opposite polarity (+) defined by a platinum lead wire or wire electrode 755. Different metals such as copper or silver can also be used, or other suitable conductors. The polarity can also be reversed, or the lead wire 750 can be used to define a ground potential for the Franz cell 710.
Round one testing was performed for three electrical waveforms with allantoin in PBS (phosphate buffered saline) or the NBS agent. The goal was to compare the three electrical waveforms for their capacity to deliver the one or more components in the NBS v1.18 agent. The delivery was tracked via allantoin measurement, used as a skin penetration tracking marker.
as §2
Samples and treatments included 1.0% allantoin in PBS, with no electrical stimulation. The skin sample was also pretreated with a GEWF (Galvanic Electrical waveform) in PBS for thirty-six minutes (36 m), followed by treatment with a PBS topical or agent containing 1.0% allantoin. Pretreatment was also applied with a charge-balanced, symmetric electrical waveform (CSW) in PBS for 36 m, followed by treatment with a PBS agent containing 1.0% allantoin, or treatment with a Program Random Pulse Width Modulation electrical waveform ([…]) in PBS for 36 m followed by application of a PBS agent with 1.0% allantoin.
as §3, with “The microcurrent dosage delivered ranged up to 375 microampere (μA) for a twelve minute cycle, repeated for three cycles. Receptor” for “Receptor”
Round 1b (Round 1: Phase 1b) testing included evaluation of the NBS v1.18 agent with the GEWF (galvanic electrical waveform), CSW (charge-balanced, symmetric electrical waveform) and […] (Program Random Pulse Width Modulation electrical waveform), in a Franz cell model as described herein. Samples and treatments included the NBS v1.18 agent containing 0.1% allantoin, with no electrical stimulation. […]

[3] = tested on: upper thigh skin of subjects; assay: Tape stripping assessment for allantoin recovery (LC-MS); format: in vivo; details: early tape strips one to five; treated vs untreated upper thigh; week twelve
Procedure: Cellulite was further evaluated by measuring circumference of upper thigh during each visit. At the end of study completion at twelve weeks, twenty tape strips were removed from the treated upper thigh area of five subjects chosen […] and five control strips were obtained from an untreated site on the upper thigh.
In addition, the circumference of each subject's upper thigh was measured during each visit as an indicator for improvement in slimming and firmness (see M. H. Gold, K. A. Khatri, K. Hails, R. A. Weiss and N. Fournier, “Reduction in thigh circumference and improvement in appearance of cellulite,” J. of Cosmetic and Laser Therapy 13, February 2011, which is incorporated by reference herein, in the entirety and for all purposes). At the end of study, the twenty tape strips were collected from the treated upper thigh area, and from an untreated upper thigh area from five randomly chosen subjects. Five tape strips from both treated and untreated areas of upper thigh were evaluated for accumulation of allantoin using LC-MS spectroscopy.
FIGS. 20A and 20B are scatter plots illustrating a tape stripping assessment for allantoin recovery in the upper thigh. The results include representative, anonymous, arbitrarily-labeled samples (S2 and S4), as compared to corresponding controls. […]

[4] = Franz cell tracking marker flux after electrical waveform pretreatment; format: in vitro ADME, human or mammalian
Text: as §1
FIG. 11A is a bar chart illustrating transdermal allantoin penetration, following selected current treatments. FIG. 11B is a bar chart illustrating allantoin retention in the epidermis and dermis, following the selected treatments. FIG. 11C is a bar chart illustrating allantoin flux, following the selected treatments. The Flus is in arbitrary units, for example μg/cm^2/hr, or other suitable, appropriate or convenient measure, as known in the art.
as §4

[5] = Franz cell epidermal and dermal retention of tracking marker; format: in vitro ADME, human or mammalian; remark: listed apart in the source
[6] = Round Three, FIG. 15B, 1.0% allantoin in PBS

allantoin retention in epidermis and dermis, GEWF vs CSW and PRPWMEWF ([1]; Round 1a, FIG. 9B, 1.0% allantoin in PBS, 24 h): slightly more retention
epidermal retention at pretreatment current of about 375 μA [1, 6]: increased epidermal retention
retention in the dermis at lower microcurrent levels (250 μA, 125 μA) [1, 6]: higher retention in the dermis
skin retention, six minute vs three minute pretreatment ([1]; Round Three, FIG. 15B, all microcurrent levels): higher skin retention
delivery of allantoin after electrical pre-treatment using conductive gel vs non-electrical pretreatment ([2]; FIG. 11A, test #9 and #11 vs #10, conductive gel containing 1.0% allantoin, Ept-36 min): 5
increase in transdermal penetration of allantoin ([2]; Round 1a, FIG. 9A, 1.0% allantoin in PBS after 36 min pretreatment with galvanic, CSW or PRPWM waveform, up to 375 μA): fivefold increase
increase in penetration after electrical pre-treatment using PBS vs non-electrical pretreatment, caffeine as tracking marker ([2]; Round 2b, FIG. 13A, test #1 vs #2, Ept-36 min): greater than fivefold increase
transdermal penetration of allantoin, six minute vs three minute pretreatment ([2]; Round Four, FIG. 16A, NBS agent with 0.1% allantoin left on): increased transdermal penetration
transdermal penetration of allantoin, six minute vs three minute pretreatment ([2]; Round Three, FIG. 15A, 1.0% allantoin in PBS): increased transdermal penetration
increase in penetration of allantoin upon electrical pre-treatment vs non-electrical pretreated sample with PBS (flux chart) ([4]; FIG. 11C, test #3 vs #4): Greater than fivefold increase
increase in skin allantoin delivery, electrical pre-treatment with conductive gel vs non-stimulated (flux chart) ([4]; FIG. 11C, test #9 and #11 vs #10): 5
increase in penetration upon electrical pre-treatment vs non-electrical pretreatment sample with PBS (flux chart) ([4]; Round 2b (caffeine), FIG. 13C, test #1 vs #2): greater than fivefold increase
allantoin flux, six minute vs three minute electrical pretreatment ([4]; Round Four, FIG. 16C, all current levels, 0.5 h to 24 h after pretreatment): higher allantoin flux
allantoin flux at initial time point ([4]; Round Three, FIG. 15C, all current levels, 30 m to 1 h following pretreatment): increased allantoin flux
increase in penetration of allantoin in both epidermis and dermis vs non-electrically stimulated sample with PBS ([5]; FIG. 11B, test #3 vs #4): Greater than fivefold increase
skin allantoin delivery in epidermis and dermis, electrically treated conductive gel vs non-stimulated ([5]; FIG. 11B, test #9 and #11 vs #10): 5
increase in penetration in both epidermis and dermis vs non-electrically stimulated sample with PBS ([5]; Round 2b (caffeine), FIG. 13B, test #1 vs #2): greater than fivefold increase
epidermal and dermal retention of allantoin, six minute vs three minute pretreatment ([5]; Round Four, FIG. 16B, NBS 0.1% allantoin, about 375 μA): increased epidermal and dermal retention
allantoin retention, three minute and six minute pretreatments ([5]; Round Four, FIG. 16B, about 125 μA): comparable allantoin retention
difference in allantoin retention in the dermis ([5]; test #5 vs #6, NBS agent 0.1% allantoin, dermis): not necessarily a substantial difference
SMILES: NC(=O)NC1NC(=O)NC1=O (stereo not shown) [allantoin]
allantoin recovered by tape stripping vs background (control) allantoin level [3]: increased over the background skin allantoin level
allantoin flux at later time point ([4]; Round Three, FIG. 15C, 1-6 h): substantially no flux; also recorded: little or substantially no flux
allantoin retention in the dermis ([5]; Round Four, FIG. 16B, about 250 μA, six minute pretreatment): stimulate additional allantoin retention in the dermis
allantoin retention in the epidermis ([5]; Round Four, FIG. 16B, about 250 μA, three minute pretreatment): stimulate allantoin retention in the epidermis

SMILES: Cn1c(=O)c2c(ncn2C)n(C)c1=O [caffeine]
increase in penetration after electrical pre-treatment using PBS vs non-electrical pretreatment, caffeine as tracking marker [2]: greater than fivefold increase
